The values that follow come from patent publication US20230380424A1, “IMPROVEMENTS IN OR RELATING TO COPPER BASED PESTICIDES” (AGRONATURALIS LTD, priority 2020, published 2023).

The structures appear in SMILES notation.

Series [1] is described as follows: Surface tension of spray compositions (Kruss DSA30 Drop shape analyser). Particulars: composition with 15 ppm copper hydroxide. It counts as physicochemical. As for the experimental part:
(§1) The surface wetting and deposition of copper from spray compositions was determined by comparing compositions containing 15 ppm copper hydroxide with varying amounts of sodium lauryl sulfate (Agnique SLS) on its own, varying amounts of sodium dioctyl sulfosuccinate (Geropon SDS) on its own and various mixtures of the two surfactants.
(§2) The measurements were made using a Kruss DSA30 Drop shape analyser.

The nature of series [2]: Contact angle of spray compositions (Kruss DSA30 Drop shape analyser). It counts as physicochemical. The settings on record: composition with 15 ppm copper hydroxide. As for the experimental part:
as §1
Contact angles of the same compositions were also measured.
as §2

Take `CCCCCCCCCCCCOS(=O)(=O)[O-].[Na+]` [Agnique SLS, sodium lauryl sulfate]: the “surface tension (actual)” value in series [1] (5 ppm surfactant) is given as 70.4 mN/m; in series [1] (20 ppm surfactant), 70.5 mN/m; in series [1] (50 ppm surfactant), 67.3 mN/m; in series [1] (125 ppm surfactant), 64.7 mN/m; in series [1] (250 ppm surfactant), 64.6 mN/m. In series [2] (across all rates), this compound showed a contact angle above 100 °.

Regarding `CCCCCCCCOC(=O)CC(C(=O)OCCCCCCCC)S(=O)(=O)O.[Na]` (stereo not drawn) [Geropon SDS, sodium dioctyl sulfosuccinate], the “surface tension (actual)” value amounted to 70.0 mN/m in series [1] (5 ppm surfactant); 55.5 mN/m in series [1] (20 ppm surfactant); 49.6 mN/m in series [1] (50 ppm surfactant); 47.6 mN/m in series [1] (125 ppm surfactant); 43.9 mN/m in series [1] (250 ppm surfactant). For the same compound, the “contact angle trend with concentration” value in series [2] is given as “stepwise reduction from 5 ppm onwards”.
